The text below walks through data of US12247008B2, “Multi-aziridine compound” (COVESTRO (NETHERLANDS) B.V., priority 2020, dated 2025).

This series relates to Rtkn-GFP. In words: ToxTracker genotoxicity assay, Rtkn-GFP reporter induction.

For the compound `CC1CN1CC(C)(C)OC(=O)NCCCCCCn1c(=O)n(CCCCCCNC(=O)OC(C)(C)CN2CC2C)c(=O)n(CCCCCCNC(=O)OC(C)(C)CN2CC2C)c1=O` (stereo not drawn) [Ex. 1], the Rtkn induction level was found to be 1.0 fold (with S9 rat liver extract, 3 h exposure and 24 h recovery, at 10% cytotoxicity); 1.1 fold (with S9 rat liver extract, 3 h exposure and 24 h recovery, at 25% cytotoxicity); 1.3 fold (with S9 rat liver extract, 3 h exposure and 24 h recovery, at 50% cytotoxicity); 1.1 fold (without S9 rat liver extract, 24 h exposure, at 10% cytotoxicity); 1.1 fold (without S9 rat liver extract, 24 h exposure, at 25% cytotoxicity); 1.3 fold (without S9 rat liver extract, 24 h exposure, at 50% cytotoxicity).
